Reference: US10701934B2, “Synergistic weed control from applications of penoxsulam and benzobicyclon or clomazone and benzobicyclon” (Dow AgroSciences LLC, priority 2013, dated 2020)

How the values were obtained:
[1] = tested on: Purple Nutsedge, Cyperus rotundus (CYPRO); experiment: In-water application in transplanted rice in the greenhouse, visual weed control of CYPRO; type: in vivo; details: 22 days after application, 0-100 scale
Text: Weed seeds or nutlets of the desired test plant species were planted in puddled soil (mud) prepared by mixing a shredded, non-sterilized mineral soil (50.5 percent silt, 25.5 percent clay, and 24 percent sand, with a pH of about 7.6 and an organic matter content of about 2.9 percent) and water at a 1:1 volumetric ratio. The prepared mud was dispensed in 365 milliliter (mL) aliquots into 16-ounce (oz.) non-perforated plastic pots with a surface area of 86.59 square centimeters (cm^2) leaving a headspace of 3 centimeters (cm) in each pot. Rice seeds were planted in Sun Gro MetroMix® 306 planting mixture, which typically has a pH of 6.0 to 6.8 and an organic matter content of about 30 percent, in plastic plug trays. Seedlings at the second or third leaf stage of growth were transplanted into 860 mL of mud contained in 32-oz. non-perforated plastic pots with a surface area of 86.59 cm^2 4 days prior to herbicide application. The paddy was created by filling the headspace of the pots with 2.5 to 3 cm of water. When required to ensure good germination and healthy plants, a fungicide treatment and/or other chemical or physical treatment was applied. The plants were grown for 4-22 days in a greenhouse with an approximate 14 hour (h) photoperiod which was maintained at about 29° C. during the day and about 26° C. during the night. […] Treatment requirements for each compound or herbicidal component were calculated based upon the rates being tested, the concentration of active ingredient or acid equivalent in the formulation, an application volume of 2 mL per component per pot, and an application area of 86.59 cm^2 per pot. For formulated compounds, a measured amount was placed in an individual 100 or 200 mL glass vial and was dissolved in a volume of 1.25% volume per volume (v/v) Agri-Dex® crop oil concentrate to obtain application solutions. […] The results measured at 22 days following application of the compositions are provided in Table 1 (Penoxsulam and Benzobicyclon) and Table 2 (Clomazone and Benzobicyclon).

[2] = tested on: Early Watergrass, Echinochloa oryzoides (ECHOR); experiment: In-water application in transplanted rice in the greenhouse, visual weed control of ECHOR; type: in vivo; details: 22 days after application, 0-100 scale
Text: Weed seeds or nutlets of the desired test plant species were planted in puddled soil (mud) prepared by mixing a shredded, non-sterilized mineral soil (50.5 percent silt, 25.5 percent clay, and 24 percent sand, with a pH of about 7.6 and an organic matter content of about 2.9 percent) and water at a 1:1 volumetric ratio. The prepared mud was dispensed in 365 milliliter (mL) aliquots into 16-ounce (oz.) non-perforated plastic pots with a surface area of 86.59 square centimeters (cm^2) leaving a headspace of 3 centimeters (cm) in each pot. Rice seeds were planted in Sun Gro MetroMix® 306 planting mixture, which typically has a pH of 6.0 to 6.8 and an organic matter content of about 30 percent, in plastic plug trays. Seedlings at the second or third leaf stage of growth were transplanted into 860 mL of mud contained in 32-oz. non-perforated plastic pots with a surface area of 86.59 cm^2 4 days prior to herbicide application. The paddy was created by filling the headspace of the pots with 2.5 to 3 cm of water. When required to ensure good germination and healthy plants, a fungicide treatment and/or other chemical or physical treatment was applied. The plants were grown for 4-22 days in a greenhouse with an approximate 14 hour (h) photoperiod which was maintained at about 29° C. during the day and about 26° C. during the night. Nutrients were added as Osmocote® (17:6:10, N:P:K+minor nutrients) at 2 grams (g) per 16-oz. pot and 4 g per 32-oz. pot. Water was added on a regular basis to maintain the paddy flood, and supplemental lighting was provided with overhead metal halide 1000-Watt lamps as necessary. The plants were employed for testing when they reached the first through fourth true leaf stage. Treatments of penoxsulam and benzobicyclon consisted of penoxsulam and benzobicyclon, applied alone or in combination. Treatments of clomazone and benzobicyclon consisted of clomazone and benzobicyclon, applied alone or in combination. Penoxsulam was formulated as Grasp® SC, clomazone was formulated as Command® 3ME, and benzobicyclon was formulated as 3.5% flowable or as technical grade material. Treatment requirements for each compound or herbicidal component were calculated based upon the rates being tested, the concentration of active ingredient or acid equivalent in the formulation, an application volume of 2 mL per component per pot, and an application area of 86.59 cm^2 per pot. For formulated compounds, a measured amount was placed in an individual 100 or 200 mL glass vial and was dissolved in a volume of 1.25% volume per volume (v/v) Agri-Dex® crop oil concentrate to obtain application solutions. […] The results measured at 22 days following application of the compositions are provided in Table 1 (Penoxsulam and Benzobicyclon) and Table 2 (Clomazone and Benzobicyclon).

[3] = Benzobicyclon 100 g ai/ha alone

CC1(C)CON(Cc2ccccc2Cl)C1=O [Clomazone, 2-[(2-chlorophenyl)methyl]-4,4-dimethyl-3-isoxazolidinone]
% Visual Weed Control 22DAA CYPRO Observed ([1]; Clomazone 112 g ai/ha alone): 0%

CS(=O)(=O)c1ccc(C(=O)C2=C(Sc3ccccc3)C3CCC(C3)C2=O)c(Cl)c1 (stereo not shown) [Benzobicyclon, 3-(2-chloro-4-mesylbenzoyl)-2-phenylthiobicyclo[3.2.1]oct-2-en-4-one]
% Visual Weed Control 22DAA CYPRO Observed ([1]; Benzobicyclon 50 g ai/ha alone): 10%
% Visual Weed Control 22DAA CYPRO Observed [1, 3]: 30%
% Visual Weed Control 22DAA ECHOR Observed ([2]; Benzobicyclon 25 g ai/ha alone): 0%
% Visual Weed Control 22DAA ECHOR Observed ([2]; Benzobicyclon 50 g ai/ha alone): 10%
% Visual Weed Control 22DAA ECHOR Observed [2, 3]: 15%

COc1cnc(OC)n2nc(NS(=O)(=O)c3c(OCC(F)F)cccc3C(F)(F)F)nc12 [Penoxsulam]
% Visual Weed Control 22DAA ECHOR Observed ([2]; Penoxsulam 10 g ai/ha alone): 85%
